{
  "source": "patent US12077503B2",
  "about": "“Substituted cyclic amides and their use as herbicides” (FMC CORPORATION, priority 2015, dated 2024)",
  "assay_in_all_cases": "Test C preemergence",
  "assay_type_in_all_cases": "in vivo",
  "key": {"[1]": {"system": "ryegrass, Italian (Italian ryegrass, Lolium multiflorum)", "settings": "for Plant response rating, Ryegrass, Italian: scale 0 to 100, 0 no effect, 100 complete control", "summary_of_the_method": "(§1)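 Preemergence application to seeds in loam/sand soil, or foliar (postemergence) application to plants 2–18 cm tall in peat moss/vermiculite medium; surfactant-containing non-phytotoxic solvent vehicle; greenhouse. Visual injury vs controls at 13–15 d; 0 = no effect, 100 = complete control.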"}, "[2]": {"system": "ragweed (common ragweed, Ambrosia elatior)", "settings": "for Plant response rating, Ragweed: scale 0 to 100, 0 no effect, 100 complete control", "summary_of_the_method": "as §1"}, "[3]": {"system": "johnsongrass (Sorghum halepense)", "settings": "for Plant response rating, Johnsongrass: scale 0 to 100, 0 no effect, 100 complete control", "summary_of_the_method": "as §1"}, "corn (Zea mays)": {"system": "corn (Zea mays)", "settings": "for Plant response rating, Corn: scale 0 to 100, 0 no effect, 100 complete control", "summary_of_the_method": "as §1"}, "[4]": {"system": "morningglory (Ipomoea coccinea)", "settings": "for Plant response rating, Morningglory: scale 0 to 100, 0 no effect, 100 complete control", "summary_of_the_method": "as §1"}, "[5]": {"system": "blackgrass (Alopecurus myosuroides)", "settings": "for Plant response rating, Blackgrass: scale 0 to 100, 0 no effect, 100 complete control", "summary_of_the_method": "as §1"}, "[6]": {"system": "lambsquarters (Chenopodium album)", "settings": "for Plant response rating, Lambsquarters: scale 0 to 100, 0 no effect, 100 complete control", "summary_of_the_method": "as §1"}, "[7]": {"system": "wheat (winter wheat, Triticum aestivum)", "settings": "for Plant response rating, Wheat: scale 0 to 100, 0 no effect, 100 complete control", "summary_of_the_method": "as §1"}, "[8]": {"system": "crabgrass, large (large crabgrass, Digitaria sanguinalis)", "settings": "for Plant response rating, Crabgrass, Large: scale 0 to 100, 0 no effect, 100 complete control", "summary_of_the_method": "as §1"}, "[9]": {"system": "barnyardgrass (Echinochloa crus-galli)", "settings": "for Plant response rating, Barnyardgrass: scale 0 to 100, 0 no effect, 100 complete control", "summary_of_the_method": "as §1"}, "soybean (Glycine max)": {"system": "soybean (Glycine max)", "settings": "for Plant response rating, Soybean: scale 0 to 100, 0 no effect, 100 complete control", "summary_of_the_method": "as §1"}, "[10]": {"system": "pigweed (Amaranthus retroflexus)", "settings": "for Plant response rating, Pigweed: scale 0 to 100, 0 no effect, 100 complete control", "summary_of_the_method": "as §1"}, "[11]": {"system": "Galium (catchweed bedstraw, Galium aparine)", "settings": "for Plant response rating, Galium: scale 0 to 100, 0 no effect, 100 complete control", "summary_of_the_method": "as §1"}, "[12]": {"system": "waterhemp (common waterhemp, Amaranthus rudis)", "settings": "for Plant response rating, Waterhemp: scale 0 to 100, 0 no effect, 100 complete control", "summary_of_the_method": "as §1"}, "[13]": {"system": "oilseed rape (Brassica napus)", "settings": "for Plant response rating, Oilseed Rape: scale 0 to 100, 0 no effect, 100 complete control", "summary_of_the_method": "as §1"}, "[14]": {"system": "velvetleaf (Abutilon theophrasti)", "settings": "for Plant response rating, Velvetleaf: scale 0 to 100, 0 no effect, 100 complete control", "summary_of_the_method": "as §1"}, "[15]": {"system": "nutsedge, yellow (yellow nutsedge, Cyperus esculentus)", "settings": "for Plant response rating, Nutsedge, Yellow: scale 0 to 100, 0 no effect, 100 complete control", "summary_of_the_method": "as §1"}, "[16]": {"system": "foxtail, giant (giant foxtail, Setaria faberii)", "settings": "for Plant response rating, Foxtail, Giant: scale 0 to 100, 0 no effect, 100 complete control", "summary_of_the_method": "as §1"}, "[17]": {"settings": "31 g ai/ha, 0 is no effect, 100 is complete control"}},
  "data": [
    {"compound": "CN1CC(c2cccc(OC(F)F)c2)C(C(=O)Nc2ccc(F)cc2F)C1=O", "note": "(stereo not drawn) [Compound 617]", "values": [
      {"measurement": "Plant response rating (scale of 0 to 100), Ryegrass, Italian", "setting": "[1]; [17]", "result": 10},
      {"measurement": "Plant response rating, Ryegrass, Italian", "setting": "[1]; 62 g ai/ha", "result": 45},
      {"measurement": "Plant response rating, Ryegrass, Italian", "setting": "[1]; 125 g ai/ha", "result": 50},
      {"measurement": "Plant response rating, Ryegrass, Italian", "setting": "[1]; 250 g ai/ha", "result": 90},
      {"measurement": "Plant response rating (scale of 0 to 100), Ragweed", "setting": "[2]; [17]", "result": 10},
      {"measurement": "Plant response rating, Ragweed", "setting": "[2]; 62 g ai/ha", "result": 10},
      {"measurement": "Plant response rating, Ragweed", "setting": "[2]; 125 g ai/ha", "result": 40},
      {"measurement": "Plant response rating, Ragweed", "setting": "[2]; 250 g ai/ha", "result": 70},
      {"measurement": "Plant response rating (scale of 0 to 100), Johnsongrass", "setting": "[3]; [17]", "result": 25},
      {"measurement": "Plant response rating, Johnsongrass", "setting": "[3]; 62 g ai/ha", "result": 30},
      {"measurement": "Plant response rating, Johnsongrass", "setting": "[3]; 125 g ai/ha", "result": 65},
      {"measurement": "Plant response rating, Johnsongrass", "setting": "[3]; 250 g ai/ha", "result": 75},
      {"measurement": "Plant response rating (scale of 0 to 100), Corn", "setting": "corn (Zea mays); [17]", "result": 0},
      {"measurement": "Plant response rating, Corn", "setting": "corn (Zea mays); 62 g ai/ha", "result": 40},
      {"measurement": "Plant response rating, Corn", "setting": "corn (Zea mays); 125 g ai/ha", "result": 75},
      {"measurement": "Plant response rating, Corn", "setting": "corn (Zea mays); 250 g ai/ha", "result": 80},
      {"measurement": "Plant response rating (scale of 0 to 100), Morningglory", "setting": "[4]; [17]", "result": 0},
      {"measurement": "Plant response rating, Morningglory", "setting": "[4]; 62 g ai/ha", "result": 0},
      {"measurement": "Plant response rating, Morningglory", "setting": "[4]; 125 g ai/ha", "result": 25},
      {"measurement": "Plant response rating, Morningglory", "setting": "[4]; 250 g ai/ha", "result": 40},
      {"measurement": "Plant response rating (scale of 0 to 100), Blackgrass", "setting": "[5]; [17]", "result": 20},
      {"measurement": "Plant response rating, Blackgrass", "setting": "[5]; 62 g ai/ha", "result": 20},
      {"measurement": "Plant response rating, Blackgrass", "setting": "[5]; 125 g ai/ha", "result": 85},
      {"measurement": "Plant response rating, Blackgrass", "setting": "[5]; 250 g ai/ha", "result": 90},
      {"measurement": "Plant response rating (scale of 0 to 100), Lambsquarters", "setting": "[6]; [17]", "result": 30},
      {"measurement": "Plant response rating, Lambsquarters", "setting": "[6]; 62 g ai/ha", "result": 55},
      {"measurement": "Plant response rating, Lambsquarters", "setting": "[6]; 125 g ai/ha", "result": 70},
      {"measurement": "Plant response rating, Lambsquarters", "setting": "[6]; 250 g ai/ha", "result": 80},
      {"measurement": "Plant response rating (scale of 0 to 100), Wheat", "setting": "[7]; [17]", "result": 0},
      {"measurement": "Plant response rating, Wheat", "setting": "[7]; 62 g ai/ha", "result": 15},
      {"measurement": "Plant response rating, Wheat", "setting": "[7]; 125 g ai/ha", "result": 45},
      {"measurement": "Plant response rating, Wheat", "setting": "[7]; 250 g ai/ha", "result": 80},
      {"measurement": "Plant response rating (scale of 0 to 100), Crabgrass, Large", "setting": "[8]; [17]", "result": 95},
      {"measurement": "Plant response rating, Crabgrass, Large", "setting": "[8]; 62 g ai/ha", "result": 95},
      {"measurement": "Plant response rating, Crabgrass, Large", "setting": "[8]; 125 g ai/ha", "result": 100},
      {"measurement": "Plant response rating, Crabgrass, Large", "setting": "[8]; 250 g ai/ha", "result": 100},
      {"measurement": "Plant response rating (scale of 0 to 100), Barnyardgrass", "setting": "[9]; [17]", "result": 85},
      {"measurement": "Plant response rating, Barnyardgrass", "setting": "[9]; 62 g ai/ha", "result": 90},
      {"measurement": "Plant response rating, Barnyardgrass", "setting": "[9]; 125 g ai/ha", "result": 95},
      {"measurement": "Plant response rating, Barnyardgrass", "setting": "[9]; 250 g ai/ha", "result": 95},
      {"measurement": "Plant response rating (scale of 0 to 100), Soybean", "setting": "soybean (Glycine max); [17]", "result": 0},
      {"measurement": "Plant response rating, Soybean", "setting": "soybean (Glycine max); 62 g ai/ha", "result": 10},
      {"measurement": "Plant response rating, Soybean", "setting": "soybean (Glycine max); 125 g ai/ha", "result": 0},
      {"measurement": "Plant response rating, Soybean", "setting": "soybean (Glycine max); 250 g ai/ha", "result": 20},
      {"measurement": "Plant response rating (scale of 0 to 100), Pigweed", "setting": "[10]; [17]", "result": 10},
      {"measurement": "Plant response rating, Pigweed", "setting": "[10]; 62 g ai/ha", "result": 20},
      {"measurement": "Plant response rating, Pigweed", "setting": "[10]; 125 g ai/ha", "result": 45},
      {"measurement": "Plant response rating, Pigweed", "setting": "[10]; 250 g ai/ha", "result": 75},
      {"measurement": "Plant response rating (scale of 0 to 100), Galium", "setting": "[11]; [17]", "result": 0},
      {"measurement": "Plant response rating, Galium", "setting": "[11]; 62 g ai/ha", "result": 85},
      {"measurement": "Plant response rating, Galium", "setting": "[11]; 125 g ai/ha", "result": 85},
      {"measurement": "Plant response rating, Galium", "setting": "[11]; 250 g ai/ha", "result": 85},
      {"measurement": "Plant response rating (scale of 0 to 100), Waterhemp", "setting": "[12]; [17]", "result": 20},
      {"measurement": "Plant response rating, Waterhemp", "setting": "[12]; 62 g ai/ha", "result": 25},
      {"measurement": "Plant response rating, Waterhemp", "setting": "[12]; 125 g ai/ha", "result": 70},
      {"measurement": "Plant response rating, Waterhemp", "setting": "[12]; 250 g ai/ha", "result": 80},
      {"measurement": "Plant response rating (scale of 0 to 100), Oilseed Rape", "setting": "[13]; [17]", "result": 30},
      {"measurement": "Plant response rating, Oilseed Rape", "setting": "[13]; 62 g ai/ha", "result": 85},
      {"measurement": "Plant response rating, Oilseed Rape", "setting": "[13]; 125 g ai/ha", "result": 90},
      {"measurement": "Plant response rating, Oilseed Rape", "setting": "[13]; 250 g ai/ha", "result": 90},
      {"measurement": "Plant response rating (scale of 0 to 100), Velvetleaf", "setting": "[14]; [17]", "result": 10},
      {"measurement": "Plant response rating, Velvetleaf", "setting": "[14]; 62 g ai/ha", "result": 10},
      {"measurement": "Plant response rating, Velvetleaf", "setting": "[14]; 125 g ai/ha", "result": 20},
      {"measurement": "Plant response rating, Velvetleaf", "setting": "[14]; 250 g ai/ha", "result": 45},
      {"measurement": "Plant response rating (scale of 0 to 100), Nutsedge, Yellow", "setting": "[15]; [17]", "result": 0},
      {"measurement": "Plant response rating, Nutsedge, Yellow", "setting": "[15]; 62 g ai/ha", "result": 0},
      {"measurement": "Plant response rating, Nutsedge, Yellow", "setting": "[15]; 125 g ai/ha", "result": 20},
      {"measurement": "Plant response rating, Nutsedge, Yellow", "setting": "[15]; 250 g ai/ha", "result": 35},
      {"measurement": "Plant response rating (scale of 0 to 100), Foxtail, Giant", "setting": "[16]; [17]", "result": 90},
      {"measurement": "Plant response rating, Foxtail, Giant", "setting": "[16]; 62 g ai/ha", "result": 90},
      {"measurement": "Plant response rating, Foxtail, Giant", "setting": "[16]; 125 g ai/ha", "result": 95},
      {"measurement": "Plant response rating, Foxtail, Giant", "setting": "[16]; 250 g ai/ha", "result": 98}
    ]}
  ]
}
